Results on 19 substances are retold here after US11098082B2, “Antigenic peptides and uses thereof for diagnosing and treating autism” (The Regents of the University of California, priority 2015, dated 2021).

What all share (format): binding, human
For one assay, the system named is maternal autoantibodies. The experiment in a line: validation peptide microarray incubated with maternal plasma samples (ASD vs TD mothers). To be noted: for Number (%) Positive In ASD / Number Positive In ASD (n = 46): plasma of mothers of children with ASD, n = 46; for Number Positive In ASD (n = 46): peptide called positive (reactive) per sample; for Number (%) Positive In TD / Number Positive In TD (n = 21): plasma of mothers of typically developing children, n = 21; for binding by autoantibodies, ASD samples compared with TD samples: in words.

Assay [1] deals with autoantibodies present in a maternal sample. The experiment in a line: ELISA with the full-length STIP1 polypeptide. To be noted: Sample No. 1190.
Assay [2] has the same test system. The experiment in a line: STIP1 peptide ELISA with maternal plasma samples. The following applies: plasma 1:400; for Final (absorbance, average minus blank): 450 nm; for Average (absorbance): 450 nm with 490 nm reference, duplicate. The text has this: The peptides of Table 2 were synthesized with a linker and biotinylated. In particular, each biotinylated peptide was biotin-SGSS-peptide-DKP with SGSS (SEQ ID NO: 121) as the spacer and a diketopiperazine (DKP) group at the C-terminus of the peptide. Pierce® NeutrAvidin® protein coated microwell plates (Thermo Scientific) were washed with PBST and excess buffer was removed from the wells. The biotinylated peptides were reconstituted in pure solvent (e.g., DMSO or DMF) or a solvent/water mixture. The reconstituted peptide was diluted […] in ultra pure water to a final concentration of 5 μg/ml. 100 μl of the diluted biotinylated peptide was dispensed into the wells and incubated for 1 hour at room temperature or overnight at 4° C. on a slow rocker. Reference wells were left uncoated but filled with buffer. Nonspecific binding sites were blocked by incubation with 200 μl of a 5% Pierce® Superblock™ PBS solution for 2 hours at room temperature. Subsequently, the plates were washed six times with PBST using an automated plate washer.
The following method adapted from Sanchez et al. (Cancer Chemother. Pharmacol., 66: 919-925 (2010)) was used to detect maternal antibodies against one or more of the peptides of the ELISA-based assay described above: Maternal plasma samples were obtained including samples predetermined to be reactive to the full-length antigens of the peptides in the assay. The test samples were diluted in sample diluent (e.g., 2.5% Pierce® Superblock™ in PBST) and 100 μl of each sample was added to the wells of the assay plate. All samples were analyzed in duplicate in both peptide-coated and uncoated wells. The diluted samples were incubated for 1 hour at room temperature. The plates were then washed six times with PBST. The labeled secondary antibody solution (e.g., horseradish peroxidase-conjugated goat anti-human IgG, Invitrogen) was added to the wells and incubated for 30 minutes at room temperature. The plates were again washed eight times with PBST. The plates were then washed with PBS without Tween twice. The BD Opt EIA™ substrate (BD Biosciences Pharmingen, San Diego, Calif.) was added to the wells and incubated at room temperature for 10 minutes. The STOP solution (2N H2SO4) was added and the plate was read at 450 nm using a reference filter at 490 nm.
In particular, four maternal plasma samples were tested for their reactivity to a STIP1 peptide having the amino acid sequence PPPPPPKKETKPEPM (SEQ ID NO:22) using the following peptide ELISA protocol: • 1. Bring all reagents to room temperature. • 2. Peptides were diluted in ultra pure water from peptide stock (1 mg/mL) to a final concentration of 5 μg/mL. • 3. Add 100 μl of each peptide to corresponding wells on 96-well NeutrAvidin coated plate. • 4. Incubate plate for 1 hour at room temperature. • 5. Wash plate six times with PBS with 0.05% Tween. • 6. Add 200 μl of 5% Superblock to each well and incubated for 2 hours at room temperature. • 7. Wash plate six times with PBS with 0.05% Tween. • 8. Dilute maternal plasma samples 1:400 in sample buffer (2.5% Superblock in PBS with 0.05% Tween). • 9. Add 100 μl of diluted plasma samples to wells and incubate for 1 hour at room temperature. • 10. Wash plate six times with PBS with 0.05% Tween. • 11. Dilute Goat Anti-Human antibody 1:2,500 in PBS with 0.05% Tween. • 12. Add 100 μl of diluted Goat Anti-Human antibody to wells and incubate for 30 minutes at room temperature. • 13. Wash plate eight times with PBS with 0.05% Tween and two times with PBS Neat. • 14. Add 100 μl of BD Opt EIA substrate to each well. • 15. Incubate plate in the dark for 10 minutes at room temperature. • 16. Add 50 μl of H2SO4 to each well to stop chemical reaction. • 17. Read plate on reduced setting on spectrophotometer at 450 nm with 490 nm reference.
The samples were run in duplicate and the absorbance values were averaged. […]

Where [3] appears, read: Sample No. 99 (Medium Reactivity).
The mark [4] stands for this setting: Sample No. 1190 (Highly Reactive).
Where [5] appears, read: Sample No. 1887 (Low Reactivity).

Turning to HNSSLEYNIFEGMEC [SEQ ID NO: 55], in the assay with maternal autoantibodies, the “Number (%) Positive In ASD” value is given as 35%, the “Number Positive In ASD (n = 46)” value is listed as 16, the “Number (%) Positive In TD” value came to 19% and the “Number Positive In TD (n = 21)” value is recorded as 4.

For the substance DCIIIVVSNPVDILT [SEQ ID NO: 12], in the assay with maternal autoantibodies, the “binding by autoantibodies, ASD samples compared with TD samples” value (“binding … compared with TD samples” below) is listed as “only bound by autoantibodies when the microarrays were incubated with plasma samples obtained from mothers whose children had a diagnosis of ASD”; the “Number (%) Positive In ASD” value was 11%; the “Number Positive In ASD (n = 46)” value worked out at 5; the “Number (%) Positive In TD” value turned out to be 0%. Also, in the assay with maternal autoantibodies, the “Number Positive In TD (n = 21)” value is reported as 0.

In the case of KTISAKTHNSSLEYN [SEQ ID NO: 54], in the assay on maternal autoantibodies, the “binding … compared with TD samples” value is recorded as “only bound by autoantibodies when the microarrays were incubated with plasma samples obtained from mothers whose children had a diagnosis of ASD”; the “Number (%) Positive In ASD” value stood at 2%; the “Number Positive In ASD (n = 46)” value was 1; the “Number (%) Positive In TD” value was determined as 0%. Besides, the “Number Positive In TD (n = 21)” value in the assay on maternal autoantibodies is on record as 0.

As for PAAPPAAPALSAADT [SEQ ID NO: 28], in the assay on maternal autoantibodies, the “Number (%) Positive In ASD” value was 41%, the “Number Positive In ASD (n = 46)” value is 19, the “Number (%) Positive In TD” value worked out at 29% and the “Number Positive In TD (n = 21)” value is recorded as 6.

For the substance “full-length STIP1 polypeptide: full-length stress-induced phosphoprotein 1 (STIP1) polypeptide used in a comparison ELISA”, the absorbance value in assay [1] is recorded as ~1.0.

Regarding IAPVAEEEATVPNNKIT [SEQ ID NO: 66], in the assay on maternal autoantibodies, the “binding … compared with TD samples” value is “only bound by autoantibodies when the microarrays were incubated with plasma samples obtained from mothers whose children had a diagnosis of ASD”; the “Number (%) Positive In ASD” value was found to be 4%; the “Number Positive In ASD (n = 46)” value is 2; the “Number (%) Positive In TD” value is on record as 0%. Besides, the “Number Positive In TD (n = 21)” value with maternal autoantibodies is listed as 0.

For the substance VDLGSMDEEEEIATP [SEQ ID NO: 21], in the assay with maternal autoantibodies, the “Number (%) Positive In ASD” value worked out at 13%, the “Number Positive In ASD (n = 46)” value worked out at 6, the “Number (%) Positive In TD” value is on record as 5% and the “Number Positive In TD (n = 21)” value stood at 1.

In the case of VDVIEDKLKGEMMDL [SEQ ID NO: 3], in the assay on maternal autoantibodies, the “Number (%) Positive In ASD” value came to 15%, the “Number Positive In ASD (n = 46)” value worked out at 7, the “Number (%) Positive In TD” value worked out at 10% and the “Number Positive In TD (n = 21)” value is 2.

As to MAERKQSGKAAEDEE [SEQ ID NO: 45], in the assay with maternal autoantibodies, the “Number (%) Positive In ASD” value is reported as 22%, the “Number Positive In ASD (n = 46)” value came to 10, the “Number (%) Positive In TD” value is listed as 5% and the “Number Positive In TD (n = 21)” value turned out to be 1.

Regarding PVAEEEATVPNNKIT [SEQ ID NO: 9], in the assay on maternal autoantibodies, the “binding … compared with TD samples” value was “only bound by autoantibodies when the microarrays were incubated with plasma samples obtained from mothers whose children had a diagnosis of ASD”; the “Number (%) Positive In ASD” value worked out at 7%; the “Number Positive In ASD (n = 46)” value was 3; the “Number (%) Positive In TD” value is on record as 0%. Also, the “Number Positive In TD (n = 21)” value with maternal autoantibodies came to 0.

Turning to ETVEFDVVEGEKGAE [SEQ ID NO: 32], in the assay with maternal autoantibodies, the “Number (%) Positive In ASD” value came out at 11%, the “Number Positive In ASD (n = 46)” value turned out to be 5, the “Number (%) Positive In TD” value is reported as 5% and the “Number Positive In TD (n = 21)” value turned out to be 1.

Regarding VPRGLYDGPVCEVSV [SEQ ID NO: 60], in the assay on maternal autoantibodies, the “Number (%) Positive In ASD” value amounted to 17%, the “Number Positive In ASD (n = 46)” value was 8, the “Number (%) Positive In TD” value was 5% and the “Number Positive In TD (n = 21)” value stood at 1.

For the substance PPPPPPKKETKPEPM [SEQ ID NO: 22], the “Final (absorbance, average minus blank)” value in assay [2] (setting [3]) worked out at 0.483; in assay [2] (Sample No. 142 (Negative)), 0.093; in assay [2] (setting [4]) it was 2.045; in assay [2] (setting [5]) it was 0.129. Further, the “Average (absorbance)” value is recorded as 1.482 in assay [2] (setting [3]), 1.295 in assay [2] (Sample No. 142 (Negative)), 2.442 in assay [2] (setting [4]) and 2.101 in assay [2] (setting [5]).

Take TPKIVADKDYSVTAN [SEQ ID NO: 11]: in the assay with maternal autoantibodies, the “binding … compared with TD samples” value is listed as “only bound by autoantibodies when the microarrays were incubated with plasma samples obtained from mothers whose children had a diagnosis of ASD”; the “Number (%) Positive In ASD” value was 2%; the “Number Positive In ASD (n = 46)” value turned out to be 1; the “Number (%) Positive In TD” value stood at 0%. Further, the “Number Positive In TD (n = 21)” value in the assay on maternal autoantibodies is on record as 0.

In the case of VVPEPGSSLLTSFEK [SEQ ID NO: 36], in the assay on maternal autoantibodies, the “binding … compared with TD samples” value was “only bound by autoantibodies when the microarrays were incubated with plasma samples obtained from mothers whose children had a diagnosis of ASD”; the “Number (%) Positive In ASD” value worked out at 4%; the “Number Positive In ASD (n = 46)” value stood at 2; the “Number (%) Positive In TD” value turned out to be 0%. Moreover, the “Number Positive In TD (n = 21)” value in the assay with maternal autoantibodies is 0.

As for “MDLNDTFPEYKETIE (MDLNDTFPEYKETTE) [SEQ ID NO: 27]”, in the assay with maternal autoantibodies, the “Number (%) Positive In ASD” value is 17%, the “Number Positive In ASD (n = 46)” value was 8, the “Number (%) Positive In TD” value was 5% and the “Number Positive In TD (n = 21)” value was found to be 1.

In the case of LQTPKIVADKDYSVTAN [SEQ ID NO: 71], in the assay with maternal autoantibodies, the “binding … compared with TD samples” value is “only bound by autoantibodies when the microarrays were incubated with plasma samples obtained from mothers whose children had a diagnosis of ASD”; the “Number (%) Positive In ASD” value was determined as 2%; the “Number Positive In ASD (n = 46)” value is recorded as 1; the “Number (%) Positive In TD” value turned out to be 0%. For the same substance, in the assay on maternal autoantibodies, the “Number Positive In TD (n = 21)” value was 0.

For the substance VLLGVDLGSMDEEEE [SEQ ID NO: 20], in the assay on maternal autoantibodies, the “Number (%) Positive In ASD” value was determined as 30%, the “Number Positive In ASD (n = 46)” value came to 14, the “Number (%) Positive In TD” value was found to be 19% and the “Number Positive In TD (n = 21)” value is reported as 4.

Consider VDITSWYDGVREELE [SEQ ID NO: 38], for which, in the assay on maternal autoantibodies, the “Number (%) Positive In ASD” value came out at 26%, the “Number Positive In ASD (n = 46)” value is given as 12, the “Number (%) Positive In TD” value came to 14% and the “Number Positive In TD (n = 21)” value was 3.
